Columns and labels:
[1] = transdermal, tamoxifen-treated women; cited from earlier work
[2] = Daily topical application of 0.5% glycopyrrolate lotion in a patient with menopausal hot flashes (Example 1); type: in vivo, human
Experimental: The patient is a person with a history of hot flashes and perspiration associated with menopause. They complained about profuse facial, scalp and anterior neck sweating that occurred randomly with the hot flashes. As a treatment, the patient was offered and consented to the application of 0.5% glycopyrrolate topical lotion, which they applied once daily to their forehead and face, sparing their mouth and eyes. The lotion consisted of 1.5 gm glycopyrrolate; 75 ml ethanol; 2.4 gm hydroxyethylcell; brought to a total volume of 300 ml with water and the pH adjusted to 2-4.5.

[3] = Daily topical application of 0.5% glycopyrrolate roll-on solution in tamoxifen-treated breast cancer patients (Examples 2 and 3); type: in vivo, human
Source text: A person treated with tamoxifen for breast cancer described 8 months of hot flashes and perspiration that awakened them from sleep.
A person treated with tamoxifen for breast cancer described hot flashes and perspiration beginning on their scalp, which interfered with their sleep.

[4] = solution applied to the face of the patient; cited from earlier work
[5] = cited from earlier work
[6] = Example 2: person on tamoxifen, 0.5% roll-on solution daily to face
[7] = Example 3: person on tamoxifen, 0.5% roll-on solution daily to scalp and around hair line

## Clc1cccc(Cl)c1N=C1NCCN1 [clonidine]
[1]
  frequency and severity of hot flashes: only a moderate effect

## C[N+]1(C)CCC(OC(=O)C(O)(c2ccccc2)C2CCCC2)C1 (centres unmarked) [glycopyrrolate]
[2]; daily topical roll-on lotion, subsequent 6 months
  symptoms during continued use: continued to alleviate their symptoms
[2]; person, menopause, 0.5% lotion once daily to forehead and face
  perspiration associated with the hot flashes: complete resolution
[2]; person, 0.5% lotion once daily to forehead and face
  hot flashes associated with menopause (patient report): alleviated
[3]; [6]
  quality of sleep: improvement in the quality of their sleep
  symptoms (hot flashes and perspiration): greatly relieved their symptoms
[3]; [7]
  sleep: improved sleep
  symptoms (hot flashes and perspiration): greatly relieved their symptoms
[4]
  gustatory sweating: prevented the gustatory sweating

## CC(=O)O[C@]1(C(C)=O)CC[C@H]2[C@@H]3C=C(C)C4=CC(=O)CC[C@]4(C)[C@H]3CC[C@@]21C [megestrol acetate]
[5]; low dose oral, men and women, short term study
  frequency of hot flashes: reduce the frequency of hot flashes
[5]; low dose, long term
  side effect when taken long term: chronic adrenal insufficiency can be a side effect

Source: patent US6395757B1, “Method for treating hot flashes in humans” (priority 1998, dated 2002)
